Source: patent EP1923473B1, “Bis-diglycolamides (BISDGA) as new extractants for lanthanides [Ln(III)] and actinides [An(III)] from aqueous high-level wastes” (Universidad Autónoma de Madrid, priority 2006, dated 2008)

Columns and labels:
Assay type in all cases: physicochemical
[1] = Batch extraction from simulated HLLW from the PUREX process; details: 0.1 mol/L in TPH/1-octanol (90:10)
Source text: (§1) The feed solution used for the extraction tests is a simulated solution of an HLLW from the PUREX process, the composition of which is shown in Table 4. Table 4: Composition of the simulated HLLW-PUREX solution used for the extraction tests
(§2) The composition of the HLLW corresponds to a burn-up of 33 GWd/tHM, the generated volume of HLLW being 5000 1/t of fuel. The feed was spiked with ^241Am, ^244Cm, ^252Cf and ^152Eu. Oxalic acid and N-(2-hydroxyethyl)ethylenediaminotriacetate (HEDTA) were also added before the extraction tests.
(§3) 500 µL of the aqueous and organic phases were spiked with 10 µL of a tracer solution containing 241Am, 244Cm, 252Cf and ^152Eu, and were equilibrated for 10 minutes while they were stirred vigorously in a vortex stirrer. After the separation of the phases by centrifugation, 200 µL aliquots of each phase were taken for the determination of the concentration of ^241Am and ^152Eu using a high-purity germanium spectrometer system (EG&G Ortec). The nuclides ^241Am, ^244Cm and ^252Cf were measured by alpha spectrometry with an α-Analyst device of the company Canberra-Packard GmbH, Germany.
(§4) The concentrations of the stable elements were determined by mass spectrometry with an inductively coupled plasma source (ICP-MS) in a DRC Elan 6100 device of Perkin Elmer Sciex. The aqueous phase was measured directly after the appropriate dilution. The organic phase was analyzed after having mineralized the organic matter by microwave acid digestion and subsequent dilution.
(§5) The distribution coefficients were calculated for each element according to section C).
(§6) Extraction experiments were carried out with said simulated HLLW in a pure form and also adding oxalic acid and HEDTA to it.

[2] = as above; details: 0.1 mol/L in TPH/1-octanol (90:10); remark: listed apart in the source
Source text: as §1, §2, §3, §4, §5
A 0.1 mol/L solution of compound 4 in the "TPH/1-octanol (90:10)%vol" mixture was prepared. Extraction experiments were carried out with said simulated HLLW in a pure form and also adding oxalic acid and HEDTA to it. These complexing agents have shown to be effective in the DIAMEX process for the complexing of Mo, Zr (H2C2O4) and Pd (HEDTA).

[3] = as above; details: for Distribution coefficients Sr: 0.1 mol/L in TPH/1-octanol (90:10)
Protocol: as §1
The composition of the HLLW corresponds to a burn-up of 33 GWd/tHM, the generated volume of HLLW being 5000 1/t of fuel. […] Oxalic acid and N-(2-hydroxyethyl)ethylenediaminotriacetate (HEDTA) were also added before the extraction tests.
as §4, §5, §6, §6

[4] = Extraction capability at different nitric acid concentrations in the aqueous phase; details: 0.1 mol/L in 1-octanol or TPH/1-octanol mixtures
Protocol: The organic solutions were prepared as indicated previously in section A). The aqueous solutions consisted of nitric acid solutions at different concentrations (0.06 mol/L, 0.11 mol/L, 0.65 mol/L, 1.0 mol/L, 3.1 mol/L and 6.7 mol/L) each of them spiked with 600 Bq of ^152Eu and 600 Bq of ^241Am. The nitric acid concentration of these solutions was determined by a potentiometric titration before and after the extraction equilibrium.
The organic solutions of the compound to be studied were equilibrated with the corresponding aqueous solution, according to the different nitric acid concentrations considered, as indicated previously in section B).
600 µL of equilibrated organic phase were contacted with 600 µL of the aqueous phase of the corresponding nitric acid concentration. […]
The influence of the concentration of aqueous nitric acid of the aqueous phase, from 0.05 mol/L to 7 mol/L, on the extraction of Am/Eu with compound 4 was studied in different TPH/1-octanol mixtures as solvent, and also in 100% 1-octanol. To that end, the distribution coefficients of Am(III) and Eu(III) were determined for compound 4 dissolved at 0.1 mol/L in 1-octanol and in the following TPH/1-octanol mixtures: 50:50, 75:25 and 90:10 by volume, for the following nitric acid concentrations of the solution containing Am(III)/Eu(III): 0.06 mol/L; 0.11 mol/L; 0.65 mol/L; 1.0 mol/L; 3.1 mol/L and 6.7 mol/L. […]

[5] = Oxalic acid 0.2 mol/L, HEDTA 0.05 mol/L, TBP 0.5 mol/L
[6] = Oxalic acid 0.2 mol/L, HEDTA 0.05 mol/L, TBP No
[7] = Oxalic acid 0.3 mol/L, HEDTA 0.05 mol/L, TBP 0.5 mol/L
[8] = Oxalic acid 0.3 mol/L, HEDTA 0.05 mol/L, TBP No
[9] = Oxalic acid No, HEDTA No, TBP 0.5 mol/L
[10] = Oxalic acid No, HEDTA No, TBP No

2-Dioctylcarbamoylmethoxy-N-[3-[3-(2-dioctylcarbamoyl-methoxyacetylamino)propoxy]propyl]acetamide [Compound 18]
Distribution coefficients Cr [1, 5]: 0.006 | Distribution coefficients Cu [1, 5]: 0.085 | Distribution coefficients Fe [1, 5]: 0.001 | Distribution coefficients Ni [1, 5]: 0.015 | Distribution coefficients Cr [1, 6]: 0.006 | Distribution coefficients Cu [1, 6]: 0.075 | Distribution coefficients Fe [1, 6]: 0.001 | Distribution coefficients Ni [1, 6]: 0.014 | Distribution coefficients Cr [1, 7]: 0.006 | Distribution coefficients Cu [1, 7]: 0.093 | Distribution coefficients Fe [1, 7]: 0.009 | Distribution coefficients Ni [1, 7]: 0.015 | Distribution coefficients Cr [1, 8]: 0.006 | Distribution coefficients Cu [1, 8]: 0.083 | Distribution coefficients Fe [1, 8]: 0.001 | Distribution coefficients Ni [1, 8]: 0.014 | Distribution coefficients Cr [1, 9]: 0.006 | Distribution coefficients Cu [1, 9]: 0.067 | Distribution coefficients Fe [1, 9]: 0.001 | Distribution coefficients Ni [1, 9]: 0.014 | Distribution coefficients Cr [1, 10]: 0.006 | Distribution coefficients Cu [1, 10]: 0.064 | Distribution coefficients Fe [1, 10]: 0.001 | Distribution coefficients Ni [1, 10]: 0.014

2-Dioctylcarbamoylmethoxy-N-[3-[(2-dioctylcarbamoyl-methoxy-acetylamino)methyl]benzyl]acetamide [Compound 4]
Distribution coefficients Dy [2, 5]: 86 | Distribution coefficients Sb [2, 5]: 0.012 | Distribution coefficients Sn [2, 5]: 0.0087 | Distribution coefficients Tb [2, 5]: 54 | Distribution coefficients Te [2, 5]: 0.0012 | Distribution coefficients Dy [2, 6]: 171 | Distribution coefficients Sb [2, 6]: 0.011 | Distribution coefficients Sn [2, 6]: 0.0076 | Distribution coefficients Tb [2, 6]: 153 | Distribution coefficients Te [2, 6]: 0.0014 | Distribution coefficients Dy [2, 7]: 184 | Distribution coefficients Sb [2, 7]: 0.011 | Distribution coefficients Sn [2, 7]: 0.0072 | Distribution coefficients Tb [2, 7]: 77 | Distribution coefficients Te [2, 7]: 0.0011 | Distribution coefficients Dy [2, 8]: 195 | Distribution coefficients Sb [2, 8]: 0.012 | Distribution coefficients Sn [2, 8]: 0.0092 | Distribution coefficients Tb [2, 8]: 107 | Distribution coefficients Te [2, 8]: 0.0012 | Distribution coefficients Dy [2, 9]: 64 | Distribution coefficients Sb [2, 9]: 0.011 | Distribution coefficients Sn [2, 9]: 0.0089 | Distribution coefficients Tb [2, 9]: 57 | Distribution coefficients Te [2, 9]: 0.0012 | Distribution coefficients Dy [2, 10]: 141 | Distribution coefficients Sb [2, 10]: 0.012 | Distribution coefficients Sn [2, 10]: 0.0073 | Distribution coefficients Tb [2, 10]: 123 | Distribution coefficients Te [2, 10]: 0.0011 | factor by which the Sr distribution coefficient is lower than that obtained with TODGA [3]: 10 | Dsr ([3]; 0.1 mol/L in TPH/1-octanol (90:10)%vol, summary of all conditions): < 0.13 | Distribution coefficients Sr [3, 5]: 0.071 | Distribution coefficients Sr [3, 6]: 0.110 | Distribution coefficients Sr [3, 7]: 0.099 | Distribution coefficients Sr [3, 8]: 0.132 | Distribution coefficients Sr [3, 9]: 0.061 | Distribution coefficients Sr [3, 10]: 0.071 | extraction capability at diluted nitric acid concentrations [4]: very low
